Columns and labels:
Assay in all cases: combination Emax (second highest fraction inhibited in the dose matrix, 72 h); higher = more inhibition; extreme values may be limits of the assay
EB2 (Burkitt's Lymphoma) = test system: EB2 (Burkitt's Lymphoma)
Summary of the method: (§1)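 Bliss excess equals the observed combination effect minus the expected value EA + EB − EA·EB, where EA and EB are the effects of each agent alone. Combination Emax is the second-highest inhibition within the matrix. Inhibition was scaled from CellTiter-Glo 2.0 luminescence, with 0 set by vehicle wells and 1 by blank wells, after 72 hours of two-drug dosing of cells plated in 1536-well plates.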

[1] = test system: DU-4475 (Breast Carcinoma)
Summary of the method: as §1

[2] = test system: JIMT-1 (Breast Carcinoma)
Summary of the method: as §1

[3] = test system: NCI-H441 (Lung Adenocarcinoma)
Summary of the method: as §1

[4] = test system: Jurkat (T-Lymphoblastic Leukemia)
Summary of the method: as §1

[5] = test system: EPLC-272H (Other Solid Carcinomas)
Summary of the method: as §1

[6] = test system: A253 (Head and Neck Carcinoma)
Summary of the method: as §1

[7] = test system: GA-10 (Burkitt's Lymphoma)
Summary of the method: as §1

[8] = test system: UACC-812 (Breast Carcinoma)
Summary of the method: as §1

[9] = test system: A2780 (Ovarian Carcinoma)
Summary of the method: as §1

[10] = test system: MHH-ES-1 (Ewing's Sarcoma)
Summary of the method: as §1

[11] = test system: HCC1428 (Breast Carcinoma)
Summary of the method: as §1

RH-41 (Rhabdomyosarcoma) = test system: RH-41 (Rhabdomyosarcoma)
Summary of the method: as §1

[12] = test system: GCT (Other Solid Carcinomas)
Summary of the method: as §1

IM-9 (Non-Cancerous) = test system: IM-9 (Non-Cancerous)
Summary of the method: as §1

[13] = test system: CGTH-W-1 (Thyroid Gland Carcinoma)
Summary of the method: as §1

COLO-792 (Melanoma) = test system: COLO-792 (Melanoma)
Summary of the method: as §1

[14] = test system: NCI-H2087 (Lung Adenocarcinoma)
Summary of the method: as §1

[15] = test system: CESS (Acute Myeloid Leukemia)
Summary of the method: as §1

[16] = test system: NCI-H1651 (Lung Adenocarcinoma)
Summary of the method: as §1

Row | Structure (SMILES) | combination Emax (EB2 (Burkitt's Lymphoma)) | combination Emax [1] | combination Emax [2] | combination Emax [3] | combination Emax [4] | combination Emax [5] | combination Emax [6] | combination Emax [7] | combination Emax [8] | combination Emax [9] | combination Emax [10] | combination Emax [11] | combination Emax (RH-41 (Rhabdomyosarcoma)) | combination Emax [12] | combination Emax (IM-9 (Non-Cancerous)) | combination Emax [13] | combination Emax (COLO-792 (Melanoma)) | combination Emax [14] | combination Emax [15] | combination Emax [16]
1 | CC1(C)CCC(CN2CCN(c3ccc(C(=O)NS(=O)(=O)c4ccc(NCC5CCOCC5)c([N+](=O)[O-])c4)c(Oc4cnc5[nH]ccc5c4)c3)CC2)=C(c2ccc(Cl)cc2)C1 [Venetoclax] + C[C@@H]1COCCN1C2=NC(=NC(=C2)C3(CC3)[S@](=N)(=O)C)C4=C5C=CNC5=NC=C4 [AZD6738] (first compound max 1 µM, 7x7, partner max 10 µM) | 0.844 | 1 | 0.722 | 0.454 | 0.921 | 0.873 | 0.804 | 0.976 | 0.29 | 0.797 | 0.707 | 0.397 | 0.855 | 0.334 | 0.995 | 0.366 | 0.316 | 0.53 | 0.929 | 0.652
2 | COc1cccc(OCCCN)c1-c1cc(Nc2cnc(C#N)cn2)n[nH]1 [Prexasertib] + C=CCn1c(=O)c2cnc(Nc3ccc(N4CCN(C)CC4)cc3)nc2n1-c1cccc(C(C)(C)O)n1 [AZD1775] (first compound max 1 µM, partner max 1 µM) | 0.936 | 0.997 | 0.869 | 0.539 | 1 | 0.914 | 0.93 | 1 | 0.662 | 0.945 | 0.861 | 0.688 | 1 | 0.644 | 1 | 0.765 | 0.593 | 0.804 | 0.966 | 0.822
3 | CN(C)CCCOc1ccc(-c2ccc3ncc4c(c3c2)n(C2CCOCC2)c(=O)n4C)cn1 [AZD0156] + CCN(CCO)CCCOc1ccc2c(Nc3cc(CC(=O)Nc4cccc(F)c4)[nH]n3)ncnc2c1 [AZD2811] (first compound max 1 µM, 7x7, partner max 1 µM) | 0.416 | 0.392 | 0.0631 | 0.112 | 0.309 | 0.415 | 0.212 | 0.808 | 0.148 | 0.609 | 0.55 | 0.161 | 0.235 | 0.161 | 0.944 | 0.196 | 0.358 | 0.0658 | 0.25 | 0.107
4 | C=CCn1c(=O)c2cnc(Nc3ccc(N4CCN(C)CC4)cc3)nc2n1-c1cccc(C(C)(C)O)n1 [AZD1775] + C[C@@H]1COCCN1C2=NC(=NC(=C2)C3(CC3)[S@](=N)(=O)C)C4=C5C=CNC5=NC=C4 [AZD6738] (first compound max 1 µM, partner max 10 µM) | 0.88 | 1 | 0.76 | 0.536 | 0.991 | 0.882 | 0.863 | 1 | 0.531 | 0.938 | 0.714 | 0.49 | 0.995 | 0.552 | 0.999 | 0.434 | 0.474 | 0.729 | 0.937 | 0.823
5 | Cc1c2c(nn1C)CSCc1cc(n(C)n1)CSc1cc(c3ccccc3c1)OCCCc1c(C(=O)O)n(C)c3c-2c(Cl)ccc13 [AZD5991] + C[C@@H](Nc1cc(F)cc(F)c1)c1cc(C(=O)N(C)C)cc2c(=O)cc(N3CCOCC3)oc12 [AZD8186] (first compound max 1 µM, 7x7, partner max 3 µM) | 0.467 | 0.117 | 0.304 | 0.34 | 0.913 | 0.916 | 0.777 | 0.869 | 0.649 | 0.835 | 0.665 | 0.964 | 0.99 | 0.454 | 0.671 | 0.319 | 0.999 | 0.167 | 0.554 | 0.155
6 | CC1(C)CCC(CN2CCN(c3ccc(C(=O)NS(=O)(=O)c4ccc(NCC5CCOCC5)c([N+](=O)[O-])c4)c(Oc4cnc5[nH]ccc5c4)c3)CC2)=C(c2ccc(Cl)cc2)C1 [Venetoclax] + Cc1cc2ncnn2cc1Nc1ncc2c(n1)n(C1CCOCC1)c(=O)n2C [AZD7648] (first compound max 1 µM, 7x7, partner max 10 µM) | 0.756 | 0.23 | 0.242 | 0.264 | 0.303 | 0.514 | 0.212 | 0.698 | 0.22 | 0.628 | 0.26 | 0.139 | 0.608 | 0.283 | 0.655 | 0.259 | 0.411 | 0.133 | 0.327 | 0.191
7 | COc1cccc(OCCCN)c1-c1cc(Nc2cnc(C#N)cn2)n[nH]1 [Prexasertib] + Cc1cc2ncnn2cc1Nc1ncc2c(n1)n(C1CCOCC1)c(=O)n2C [AZD7648] (first compound max 1 µM, 7x7, partner max 10 µM) | 0.92 | 0.963 | 0.864 | 0.505 | 1 | 0.918 | 0.782 | 1 | 0.546 | 0.737 | 0.742 | 0.345 | 0.964 | 0.36 | 1 | 0.725 | 0.317 | 0.801 | 0.971 | 0.787

— the supplement of paper PMC11061612
